Assay results from patent publication US12448388B2, “PRMT5 inhibitors and uses thereof” (Gilead Sciences, Inc., priority 2023, dated 2025).

These compounds were tested on HCT116 MTAP-deleted cell lines (assay: Cell viability assay (CellTiter-Glo, 7 days), HCT116 MTAP-deleted). Conditions: Homo sapiens, HCT-116; cell viability, HCT116 MTAP-deleted; class symbols; read-out: CC50.
Type: cell-based
Summary of the method: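 Each PRMT5 inhibitor was tested as a dose response alongside tool compounds on the same plate. Incubation ran 7 days at 37 °C under 5% CO2, after which CellTiter-Glo luminescence was recorded and CC50 calculated.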

`Cn1cc(N(Cc2ccc(C(F)(F)F)cn2)C(=O)c2cc3c(cc2F)nc(N)c2cncn23)cn1` [Ff-46, 4-amino-7-fluoro-N-(1-methyl-1H-pyrazol-4-yl)-N-((5-(trifluoromethyl)pyridin-2-yl)methyl)imidazo[1,5-a]quinoxaline-8-carboxamide] and `[2H]C([2H])([2H])N(C(=O)c1cc2c(cc1F)nc(N)c1cncn12)[C@@H]1COc2cc(C(F)(F)F)ccc21` [Ff-47, 4-amino-7-fluoro-N-(methyl-d3)-N-(6-(trifluoromethyl)-2,3-dihydrobenzofuran-3-yl)imidazo[1,5-a]quinoxaline-8-carboxamide] cannot be ordered by CC50: < 100 nM for the first, < 100 nM for the second.

`CN(Cc1nc(-c2cnn(C(F)F)c2)cs1)C(=O)c1cc2c(cc1F)nc(N)c1cncn12` [Ff-48, 4-amino-N-((4-(1-(difluoromethyl)-1H-pyrazol-4-yl)thiazol-2-yl)methyl)-7-fluoro-N-methylimidazo[1,5-a]quinoxaline-8-carboxamide] and `CC(C)N(Cc1ccc(-c2cnn(C(F)F)c2)cc1F)C(=O)c1ccc2nc(N)c3cncn3c2c1` [Ff-51, 4-amino-N-(4-(1-(difluoromethyl)-1H-pyrazol-4-yl)-2-fluorobenzyl)-N-isopropylimidazo[1,5-a]quinoxaline-8-carboxamide] fall in the same range of CC50: 100 to 1000 nM for the first, 100 to 1000 nM for the second.

First: Cc1ncc2c(N)nc3ccc(C(=O)N(C)Cc4cc5cc(C(F)(F)F)ccn5n4)cc3n12 [Ff-49, 4-amino-N,1-dimethyl-N-((5-(trifluoromethyl)pyrazolo[1,5-a]pyridin-2-yl)methyl)imidazo[1,5-a]quinoxaline-8-carboxamide]
Second: CC(C)N(Cc1ccc(-c2cnn(C(F)(F)F)c2)cc1F)C(=O)c1ccc2nc(N)c3cncn3c2c1 [Ff-50, 4-amino-N-(2-fluoro-4-(1-(trifluoromethyl)-1H-pyrazol-4-yl)benzyl)-N-isopropylimidazo[1,5-a]quinoxaline-8-carboxamide]
The CC50 of the first is higher: > 1000 nM for the first, < 100 nM for the second.

Compared with `Nc1nc2cc(F)c(C(=O)N(Cc3ccc4ncsc4c3)C34CC(C3)C4)cc2n2cncc12` [Ff-52, 4-amino-N-(benzo[d]thiazol-6-ylmethyl)-N-(bicyclo[1.1.1]pentan-1-yl)-7-fluoroimidazo[1,5-a]quinoxaline-8-carboxamide], `Nc1nc2cc(F)c(C(=O)N(Cc3ccc(-n4ccnc4)cc3Cl)C34CC(C3)C4)cc2n2cncc12` [Ff-53, 4-amino-N-(bicyclo[1.1.1]pentan-1-yl)-N-(2-chloro-4-(1H-imidazol-1-yl)benzyl)-7-fluoroimidazo[1,5-a]quinoxaline-8-carboxamide] is lower in CC50: 100 to 1000 nM for the first, < 100 nM for the second.

`CC(C)N(Cc1ccc(Oc2ccccc2)cc1)C(=O)c1ccc2nc(N)c3cncn3c2c1` [Ff-57, 4-amino-N-isopropyl-N-(4-phenoxybenzyl)imidazo[1,5-a]quinoxaline-8-carboxamide] and `Nc1nc2ccc(C(=O)N(Cc3ccc(-n4ccnc4)cc3Cl)C34CC(C3)C4)cc2n2cncc12` [Ff-63, 4-amino-N-(bicyclo[1.1.1]pentan-1-yl)-N-(2-chloro-4-(1H-imidazol-1-yl)benzyl)imidazo[1,5-a]quinoxaline-8-carboxamide] fall in the same range of CC50: 100 to 1000 nM for the first, 100 to 1000 nM for the second.

`Cc1ncc2c(N)nc3ccc(C(=O)N4CCC5(CC4)COc4ccccc45)cc3n12` [Ff-61, (4-amino-1-methylimidazo[1,5-a]quinoxalin-8-yl)(2H-spiro[benzofuran-3,4′-piperidin]-1′-yl)methanone] and `Cc1ncc2c(N)nc3ccc(C(=O)N4CCC5(CC4)C(=O)Nc4ccccc45)cc3n12` [Ff-65, 1′-(4-amino-1-methylimidazo[1,5-a]quinoxaline-8-carbonyl)spiro[indoline-3,4′-piperidin]-2-one] cannot be ordered by CC50: > 1000 nM for the first, > 1000 nM for the second.

Work on `Cc1ncc2c(N)nc3ccc(C(=O)N4CCC5(CC4)C(=O)N(C)c4ccccc45)cc3n12` [Ff-64, 1′-(4-amino-1-methylimidazo[1,5-a]quinoxaline-8-carbonyl)-1-methylspiro[indoline-3,4′-piperidin]-2-one] yielded a CC50 of 100 to 1000 nM.
